Reference: patent publication US20150209315A1 (Cumberland Pharmaceuticals, priority 2009, published 2015)

Experiments:
patients = assay: Safety in all clinical studies conducted to date; format: in vivo, human; details: for postoperative GI bleeding or renal complications: up to 5 days of treatment, abdominal and orthopedic surgical procedures
[1] = test system: post-operative adult patients; assay: Example 1: patient self-assessment of pain, VAS at rest; format: in vivo, human; details: 400 mg
Experimental: Pain was measured by the patient's self-assessment using a Visual Analog Scale (VAS) from 0-10 with 0 being no pain and 10 being intense pain. This was measured both at rest and with movement. […] […] To account for the missing pain assessments, two missing value approaches as described in the statistical analysis plan were used to impute values. To determine the difference in overall pain at differing time-points, the area under the VAS pain curve during the first 24 hours, between 6 and 24 hours and between 12 and 24 hours were analyzed.

CC(C)Cc1ccc(C(C)C(=O)O)cc1 (centres unmarked) [Ibuprofen, 2-(4-isobutylphenyl) propionic acid]
impact on key metabolic and hematologic parameters (patients; all clinical studies conducted to date): no impact
patients with at least one morphine side effect vs placebo (patients; clinical trials, postoperative): significantly fewer patients
postoperative GI bleeding or renal complications (patients; listed as IV Ibuprofen): No postoperative GI bleeding or renal complications were seen
postoperative GI bleeding or renal complications (patients; listed as intravenous ibuprofen): No bleeding or renal toxicity was reported
adverse event profile (patients; vs placebo): comparable to placebo
VAS Score measured at Rest (median) ([1]; EEP, 1-Hour): 7.0
VAS Score measured at Rest, % Reduction vs Placebo ([1]; EEP, 1-Hour): 0.0%
VAS Score measured at Rest (median) ([1]; EEP, 2-Hour): 6.1
VAS Score measured at Rest, % Reduction vs Placebo ([1]; EEP, 2-Hour): −3.4%
VAS Score measured at Rest (median) ([1]; EEP, 3-Hour): 5.0
VAS Score measured at Rest, % Reduction vs Placebo ([1]; EEP, 3-Hour): 0.0%
VAS Score measured at Rest (median) ([1]; EEP, 6-Hour): 4.0
VAS Score measured at Rest, % Reduction vs Placebo ([1]; EEP, 6-Hour): 0.0%
VAS Score measured at Rest (median) ([1]; EEP, 9-Hour): 3.0
VAS Score measured at Rest (median) ([1]; EEP, 12-Hour): 3.0
VAS Score measured at Rest, % Reduction vs Placebo ([1]; EEP, 12-Hour): 0.0%
VAS Score measured at Rest (median) ([1]; EEP, 15-Hour): 2.0
VAS Score measured at Rest, % Reduction vs Placebo ([1]; EEP, 15-Hour): 33.3%
VAS Score measured at Rest (median) ([1]; EEP, 18-Hour): 2.9
VAS Score measured at Rest, % Reduction vs Placebo ([1]; EEP, 18-Hour): 3.3%
VAS Score measured at Rest (median) ([1]; EEP, 21-Hour): 2.9
VAS Score measured at Rest, % Reduction vs Placebo ([1]; EEP, 21-Hour): 3.3%
VAS Score measured at Rest (median) ([1]; EEP, 24-Hour): 3.0
VAS Score measured at Rest, % Reduction vs Placebo ([1]; EEP, 24-Hour): 0.0%
VAS Score measured at Rest (median) ([1]; EEP, 27-Hour): 3.0
VAS Score measured at Rest, % Reduction vs Placebo ([1]; EEP, 27-Hour): 3.2%
VAS Score measured at Rest (median) ([1]; EEP, 30-Hour): 2.5
VAS Score measured at Rest, % Reduction vs Placebo ([1]; EEP, 30-Hour): 10.7%
VAS Score measured at Rest (median) ([1]; EEP, 33-Hour): 2.7
VAS Score measured at Rest, % Reduction vs Placebo ([1]; EEP, 33-Hour): 15.6%
VAS Score measured at Rest (median) ([1]; EEP, 36-Hour): 2.4
VAS Score measured at Rest, % Reduction vs Placebo ([1]; EEP, 36-Hour): 7.7%
VAS Score measured at Rest (median) ([1]; EEP, 39-Hour): 2.1
VAS Score measured at Rest, % Reduction vs Placebo ([1]; EEP, 39-Hour): −16.7%
VAS Score measured at Rest (median) ([1]; EEP, 42-Hour): 2.1
VAS Score measured at Rest, % Reduction vs Placebo ([1]; EEP, 42-Hour): −5.0%
VAS Score measured at Rest (median) ([1]; EEP, 45-Hour): 2.4
VAS Score measured at Rest, % Reduction vs Placebo ([1]; EEP, 45-Hour): −14.3%
VAS Score measured at Rest (median) ([1]; EEP, 48-Hour): 1.6
VAS Score measured at Rest, % Reduction vs Placebo ([1]; EEP, 48-Hour): −6.7%
VAS Score measured at Rest (median) ([1]; ITT, 1-Hour): 7.0
VAS Score measured at Rest, % Reduction vs Placebo ([1]; ITT, 1-Hour): 0.0%
VAS Score measured at Rest (median) ([1]; ITT, 2-Hour): 6.3
VAS Score measured at Rest, % Reduction vs Placebo ([1]; ITT, 2-Hour): −3.3%
VAS Score measured at Rest (median) ([1]; ITT, 3-Hour): 5.1
VAS Score measured at Rest, % Reduction vs Placebo ([1]; ITT, 3-Hour): −2.0%
VAS Score measured at Rest (median) ([1]; ITT, 6-Hour): 4.3
VAS Score measured at Rest, % Reduction vs Placebo ([1]; ITT, 6-Hour): −7.5%
VAS Score measured at Rest (median) ([1]; ITT, 9-Hour): 3.5
VAS Score measured at Rest, % Reduction vs Placebo ([1]; ITT, 9-Hour): 12.5%
VAS Score measured at Rest (median) ([1]; ITT, 12-Hour): 3.1
VAS Score measured at Rest, % Reduction vs Placebo ([1]; ITT, 12-Hour): −3.3%
VAS Score measured at Rest (median) ([1]; ITT, 15-Hour): 2.6
VAS Score measured at Rest, % Reduction vs Placebo ([1]; ITT, 15-Hour): 21.2%
VAS Score measured at Rest (median) ([1]; ITT, 18-Hour): 2.9
VAS Score measured at Rest, % Reduction vs Placebo ([1]; ITT, 18-Hour): 3.3%
VAS Score measured at Rest (median) ([1]; ITT, 21-Hour): 2.8
VAS Score measured at Rest, % Reduction vs Placebo ([1]; ITT, 21-Hour): 20.0%
VAS Score measured at Rest (median) ([1]; ITT, 24-Hour): 3.0
VAS Score measured at Rest, % Reduction vs Placebo ([1]; ITT, 24-Hour): 0.0%
VAS Score measured at Rest (median) ([1]; ITT, 27-Hour): 3.1
VAS Score measured at Rest, % Reduction vs Placebo ([1]; ITT, 27-Hour): −3.3%
VAS Score measured at Rest (median) ([1]; ITT, 30-Hour): 2.4
VAS Score measured at Rest, % Reduction vs Placebo ([1]; ITT, 30-Hour): 11.1%
VAS Score measured at Rest (median) ([1]; ITT, 33-Hour): 2.7
VAS Score measured at Rest, % Reduction vs Placebo ([1]; ITT, 33-Hour): 15.6%
VAS Score measured at Rest (median) ([1]; ITT, 36-Hour): 2.3
VAS Score measured at Rest, % Reduction vs Placebo ([1]; ITT, 36-Hour): 11.5%
VAS Score measured at Rest (median) ([1]; ITT, 39-Hour): 2.1
VAS Score measured at Rest, % Reduction vs Placebo ([1]; ITT, 39-Hour): −16.7%
VAS Score measured at Rest (median) ([1]; ITT, 42-Hour): 2.1
